Residues, ends and D or L forms follow the SMILES beside them. *: point of attachment. Cbz = O=C(OCc1ccccc1)*; CHN2 = [N-]=[N+]=C*; Bn = c1ccc(C*)cc1
Experiments:
[1] = system: Wistar rats with MCA occlusion; experiment: Neurological function on four point scale (Bederson) after 3 h MCA occlusion; type: in vivo, rat
Procedure: CP-1 dissolved in 1% DMSO and isotonic saline was given intravenously to Wistar rats (15 μl/min) at a concentration of 50 μM for four hours beginning at the end of three hours of MCA occlusion, in accordance with the protocol described hereinabove. Control animals underwent a similar protocol, but they had injected therein a 1% DMSO/Saline as the vehicle for four hours beginning at the end of a three hour MCA occlusion. All animals which survived 7 days were sacrificed and the infarct volume was measured 7 days after the MCA occlusion.
On the first day and on the seventh day after occlusion, the neurological function was determined on a four point scale (0, 1, 2, 3,) as described in an article by Bederson, et al. in Stroke, 1986, 17:472-476, the contents of which are incorporated by reference.
The rats were placed on large sheet of soft, plastic coated paper (such as counter protection paper) which they could potentially firmly grip with their claws. The tail of the rats were held by hand, and gentle lateral pressure was applied behind the rat's shoulder until it was noticed that the forelimbs slid several inches. This maneuver was repeated several times in each direction. […] (These rats were severely dysfunctional).
These values are the mean score ±SEM of the results from treatment on control animals. P≦0.05 according to the Mann Whitney Rank Sum test.

Calpain = Calpain inactivation rate, fluorimetric progress curves; type: biochemical; settings: second order inactivation rate constant corrected for substrate; substrate Suc-Leu-Tyr-AMC; pH 7.5, 37° C.
Procedure: (§1) (“Tian, et al.”) the contents of which are incorporated by reference. More specifically, the value of kobs is given by the slope of a plot of ln [P]∞−[p]t versus t (time). The apparent second-order rate contact for inactivation, k2app was calculated as kobs/[I]. The inactivation-rates (kobs) in the presence of substrate and for different inhibitor concentrations for calpain, cathepsin B and cathepsin L are determined according to the method of Tian, et al. However, k2app is corrected for the presence of substrate (s) to give the second order rate constant k^12app, calculated as k^12app=k2app (1+[s]/Km).
Calpain was assayed fluorimetrically in 1 ml of 50 mM Tris/acetate buffer, pH 7.5, containing 5 mM CaCl2, 2.5 mM DTT(dithiothreitol), 0.1% Triton X-100 at 37° C., using 2.5×10^−4 M Suc-Leu-Tyr-aminomethylcoumarin (AMC) (Novabiochem, Switzerland) as substrate and 50nM (final concentration) of enzyme. The appearance of the 7-amino-4 methylcoumarin product was recorded continuously with a Perkin Elmer 650-10S spectrofluorimeter, a SPEX Fluorolog 1680, or SLM 8000C fluorescence spectrometer with excitation at 370 nm and emission at 460 nm.
Typically, 5 μL of the substrate solution (50 mM stock in DMSO) was added to 1 mL of buffer. Varying concentrations of the inhibitor solution (10 μL of a DMSO […] solution) were added, followed by 10 μL of calpain in the assay buffer. After allowing the reaction mixture to incubate for 2-5 min, during which time a steady baseline level of fluorescence was measured, calcium was added in a 10-μL volume to initiate hydrolysis of the fluorogenic substrate, and the resulting increase in fluorescence was monitored continuously. When inhibitors were tested at very low concentrations, the enzyme concentration was reduced to maintain a minimum of a 10-fold excess of inhibitor over enzyme.

Cathepsin L = Cathepsin L (Homo sapiens, UniProt P07711); experiment: Cathepsin L inactivation rate, fluorimetric progress curves; type: biochemical; settings: second order inactivation rate constant corrected for substrate; substrate Z-Phe-Arg-AMC; pH 5.4, 30° C.
Sequence of Cathepsin L (P07711 114-333, species assumed): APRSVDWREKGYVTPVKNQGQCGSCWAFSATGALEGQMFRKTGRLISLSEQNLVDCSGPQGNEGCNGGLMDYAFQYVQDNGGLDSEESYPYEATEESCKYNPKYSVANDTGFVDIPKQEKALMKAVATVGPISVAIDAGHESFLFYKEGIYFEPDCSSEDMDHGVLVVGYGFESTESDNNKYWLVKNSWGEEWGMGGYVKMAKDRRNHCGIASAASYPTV
Procedure: as §1
Cathepsins B and L were preactivated with […] DTT in 50 mM sodium acetate buffer, pH 5.4, 1 mM EDTA for 2 h at 4° C. and assayed in the same buffer with 0.01% Brij [poly(oxyethylene) glycol dodecyl ether]. 5 μM (final concentration) CBZ-Phe-Arg-AMC was used as substrate for both for cathepsins B and L. The inhibitors (0.1-1 μM) and substrate were added to the reaction mixture to incubate for 5 min in a cuvette thermostated at 30° C. Then, approximately 0.4 nM and 0.1 nM final concentration of cathepsin B and cathepsin L, respectively, were used to initiate the reaction. […] The progress curves were analyzed over at least 3 half lives to calculate the rate constants of inactivation in accordance with the procedure described by Crawford, C. Mason, R. W., Wilkström, P., and Shaw, E. in an article entitled “The design of peptidyldiazomethane inhibitors to distinguish between the cysteine proteinases calpain II, cathepsin L and cathepsin B.”, Biochem. J. 1988, 253, 751-758, the contents of which are incorporated by reference. The rates of inactivation of various substrates are tabulated hereinbelow.

cathepsin B [2] = target: T1, cathepsin B (Rattus norvegicus, UniProt P00787); experiment: Cathepsin B activity in brain homogenates after 2 h MCA occlusion and infusion; type: in vivo
T1 construct: the brains were extracted and separated with right and left, cortical and subcortical regions and immediately frozen in liquid nitrogen; from tissue; host or cells: rat brain (cortical and subcortical regions), homogenate
T1 sequence (P00787 80-333): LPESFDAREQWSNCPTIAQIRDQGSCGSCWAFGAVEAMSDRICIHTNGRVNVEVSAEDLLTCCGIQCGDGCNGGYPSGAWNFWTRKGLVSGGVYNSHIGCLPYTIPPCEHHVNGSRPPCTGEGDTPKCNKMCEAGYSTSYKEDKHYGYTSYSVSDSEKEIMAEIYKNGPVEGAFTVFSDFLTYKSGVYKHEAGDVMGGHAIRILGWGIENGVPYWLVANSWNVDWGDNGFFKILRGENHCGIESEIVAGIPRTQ
Procedure: The protocol of Example 6 was followed except as follows: the rats under went two hours of MCA occlusion, they were administered either CP-1 (50 μM) or 1% DMSO/saline for four hours after reperfusion and the rats were sacrificed after 48 hours of survival.
At that time, the brains were extracted and separated with right and left, cortical and subcortical regions and immediately frozen in liquid nitrogen. The samples were homogenized with buffer, titrated, and then reacted with the substrate CBZ-Arg-Arg-AMC with the resultant fluorescence measured with a fluorophotometer. Activity is expressed in units of enzyme activity per mg of soluble brain protein (mean +SEM).

Cathepsin B [3] = target: Cathepsin B (Homo sapiens, UniProt P07858); experiment: Cathepsin B inactivation rate, fluorimetric progress curves; type: biochemical; settings: second order inactivation rate constant corrected for substrate; pH 5.4, 30° C.
Procedure: as §1
Cathepsins B and L were preactivated with […] DTT in 50 mM sodium acetate buffer, pH 5.4, 1 mM EDTA for 2 h at 4° C. and assayed in the same buffer with 0.01% Brij [poly(oxyethylene) glycol dodecyl ether]. […] The inhibitors (0.1-1 μM) and substrate were added to the reaction mixture to incubate for 5 min in a cuvette thermostated at 30° C. Then, approximately 0.4 nM and 0.1 nM final concentration of cathepsin B and cathepsin L, respectively, were used to initiate the reaction. […] The progress curves were analyzed over at least 3 half lives to calculate the rate constants of inactivation in accordance with the procedure described by Crawford, C. Mason, R. W., Wilkström, P., and Shaw, E. in an article entitled “The design of peptidyldiazomethane inhibitors to distinguish between the cysteine proteinases calpain II, cathepsin L and cathepsin B.”, Biochem. J. 1988, 253, 751-758, the contents of which are incorporated by reference. The rates of inactivation of various substrates are tabulated hereinbelow.

- Cathepsin L k′2app (Cathepsin L): 1,000,000 M^−1S^−1
- cathepsin B activity in the subcortical regions versus vehicle (cathepsin B [2]; 50 μM infusion after 2 h MCA occlusion): significantly lower
- Cathepsin B k′2app (Cathepsin B [3]): 8,800 M^−1S^−1
Structure (SMILES): [N-]=[N+]=CC(=O)C(COCc1ccccc1)NC(=O)C(Cc1ccccc1)NC(=O)OCc1ccccc1 (stereo not drawn) [CP-1, benzyloxycarbonyl-Phe-Ser(OBz)-CHN2] (Cbz-Phe-Ser(Bn)-CHN2; configuration not given here)
- Functional Score Day 7 ([1]; 50 μM i.v. 4 h after 3 h MCA occlusion, scale 0-3, mean ± SEM, control 1.9 ± 0.3): 0.9 ± 0.2
- Functional Score Day 1 ([1]; 50 μM i.v. 4 h after 3 h MCA occlusion, scale 0-3, mean ± SEM, control 3 ± 0): 2.1 ± 0.6
- reducing the neurological deficits due to the occlusion ([1]; 50 μM, 3 hour MCA occlusion): effective in reducing the neurological deficits
- Calpain k′2app (Calpain): <10 M^−1S^−1
- Cathepsin B activity, Left Cortex (cathepsin B [2]; 50 μM i.v. 4 h after 2 h MCA occlusion, 48 h survival, mean ± SEM, control 0.142 ± 0.02): 0.106 ± .01 units of enzyme activity per mg of soluble brain protein
- Cathepsin B activity, Left Subcortex (cathepsin B [2]; 50 μM i.v. 4 h after 2 h MCA occlusion, 48 h survival, mean ± SEM, control 0.147 ± 0.02, p < 0.05): 0.084 ± .01 units of enzyme activity per mg of soluble brain protein
- Cathepsin B activity, Right Cortex (cathepsin B [2]; 50 μM i.v. 4 h after 2 h MCA occlusion, 48 h survival, mean ± SEM, control 0.181 ± 0.04): 0.113 ± 0.01 units of enzyme activity per mg of soluble brain protein
- Cathepsin B activity, Right Subcortex (cathepsin B [2]; 50 μM i.v. 4 h after 2 h MCA occlusion, 48 h survival, mean ± SEM, control 0.198 ± 0.03, p < 0.05): 0.113 ± 0.02 units of enzyme activity per mg of soluble brain protein

Reference: patent US6458760B1, “Method for treating tissue damaged from ischemia” (Henry Ford Health System, priority 1998, dated 2002)
